Assay in series [1]: not given
The source holds these as a separate data set.

The next series has as its system bovine coagulated blood. The series is described as follows: Decoloring screening: heme eluted from bovine coagulated blood (OD420-OD700). The settings on record: decolorization; for 700 nm calibrated 420 nm Average: OD420 calibrated by OD700; for integrated value 500-700 nm Average: integrated absorbance 500-700 nm. Here is the method:
A high-throughput screening system for evaluating the decoloring ability of various compounds was constructed. The screening system involved adding an aqueous solution of each compound to bovine coagulated blood and then measuring the absorbance of heme collected in the supernatant.
Specifically, to bovine blood, an equal amount of 8% PFA solution was added, and reacted at 4° C. overnight. The mixed liquid was centrifuged at 1500×g for 5 minutes, and the supernatant containing PFA was discarded. Then, the same amount of PBS as the original volume of blood was added to prepare a coagulated blood sample. To 150 μL of 10 wt % aqueous solution of each compound, 50 μL of the coagulated blood sample was added, and reacted at 37° C. overnight. The reaction solution was centrifuged at 1500×g for 5 minutes, and then 100 μL of the supernatant was added to a plate so as to be subjected to absorbance measurement. A sample which is suspended in water instead of being dissolved in the water has a weak decoloring effect, but none the less has a high absorbance value. […]

SMILES strings stand for the structures. Where a name gives a salt, the structure may show the parent alone. Read-outs that look alike come from different tables or passages of the source.

Where the note is “Table 4”, `Cl.NC1(C(=O)O)CCC1` [#0473, 1-Aminocyclobutanecarboxylic acid hydrochloride] gave a pH of 2.18.

Molecule `NC[C@H](O)[C@@H](O)[C@H](O)[C@H](O)CO` [#0956, D-Glucamine, reference compound] yielded a pH (Table 3) of 12.3. In addition, in series [1] (Table 3), the OD400 worked out at 0.260.

As for `O=C(O)CCCCBr` [#0074, 5-Bromovaleric acid], the pH (Table 4) came out at 2.39.

Take `C=CCC(=O)O` [#0073, 3-Butenoic acid]: the pH (Table 4) is 3.43.

Molecule `CSCC[C@H](NC(C)=O)C(=O)O` [#0350, N-Acetyl- L-methionine] had a pH (Table 4) of 2.74.

Regarding `CC(C)(C)CC(C)(C)c1ccc(OCCOCC[N+](C)(C)Cc2ccccc2)cc1` [#0441, Benzethonium Chloride], in the series with Serius, the “Fluorescence quench Average” value came to 1.08. Besides, in the series on bovine coagulated blood, the “700 nm calibrated 420 nm Average” value came out at 3.40 and the “integrated value 500-700 nm Average” value came to 2.80.

Regarding `O=CNCC(=O)O` [#0942, N-Formylglycine], where the note is “Table 4”, the pH is on record as 2.67.

The molecule `CN1CCN(Cc2ccc(C(=O)O)cc2)CC1` [#0916, 4-[(4-Methyl-1-piperazinyl)methyl]benzoic acid dihydrochloride] yielded a pH (Table 4) of 2.80.

Take `CCCCCCCCCCCCCC[N+](C)(C)Cc1ccccc1` [#0362]: the “Fluorescence quench Average” value in the series with Serius is 1.07.

Under “Table 4”, `Cl.NC1CCSC1=O` (racemic) [#1213, DL-Homocysteinethiolactone hydrochloride] showed a pH of 2.31.

Regarding `Cl.O=C(O)CCP(CCC(=O)O)CCC(=O)O` [#0197, Tris(2-carboxyethyl) phosphine hydrochloride], in the series on Serius, the “Fluorescence quench Average” value was −0.05. For the same molecule, in the series with bovine coagulated blood, the “700 nm calibrated 420 nm Average” value is 4.28 and the “integrated value 500-700 nm Average” value was 3.89.

`O=C(O)CCNCCNCCC(=O)O` [#0936, Ethylenediamine-N,N′- dipropionic acid dihydrochloride]: the pH (Table 4) is recorded as 2.22.

As to `N#CCC(=O)O` [#1569, Cyanoacetic acid], the pH (Table 4) amounted to 2.61.

For the molecule `OCCCCCl` [#1365, 4-Chloro-1-butanol (contains tetrahydrofuran)], under “Table 4”, the pH was 3.08.

Where the note is “Table 4”, `Cl.N=C(N)Nc1ccc(C(=O)O)cc1` [#1249, 4-Guanidino benzoic acid hydrochloride] displayed a pH of 4.22.

Consider `O=C(O)[C@@H](O)c1ccccc1Cl` [#0746, 2-Chloro-L-mandelic acid], for which the pH (Table 4) turned out to be 2.14.

For `CCN(CC)CCO` [#1575, 2-Diethylamino-ethanol], the “Fluorescence quench Average” value in the series with Serius was 0.61. Moreover, in the series with bovine coagulated blood, the “700 nm calibrated 420 nm Average” value is 2.41 and the “integrated value 500-700 nm Average” value was 1.21.

`[Cl-].c1ccc(C[P+](c2ccccc2)(c2ccccc2)c2ccccc2)cc1` [#0425, Benzyltriphenyl-phosphonium chloride]: the “Fluorescence quench Average” value in the series on Serius (relative fluorescence) turned out to be 0.35. In the series on bovine coagulated blood, the “700 nm calibrated 420 nm Average” value is given as 1.14 and the “integrated value 500-700 nm Average” value is reported as 0.83.

On to `O=C(O)/C=C/c1ccc(Cn2ccnc2)cc1` [#1108, Ozagrel hydrochloride hydrate], for which the pH (Table 4) is 4.92.

Regarding `O=S(=O)(O)c1cccnc1` [#1165, Pyridine-3-sulfonic acid], the pH (Table 4) is reported as 2.21.

Where the note is “Table 4”, `O=C(O)CC(O)C(=O)O` (racemic) [#1300, DL-Malic acid] registered a pH of 2.34.

`O=C(O)CCO` [#0155, 3-Hydroxypropionic acid]: the pH (Table 4) is 3.66.

Take `O=C(O)[C@H](O)[C@@H](O)[C@H](O[C@@H]1O[C@H](CO)[C@H](O)[C@H](O)[C@H]1O)[C@H](O)CO` [#1010, Lactobionic acid]: the pH (Table 4) worked out at 2.63.

As to `OCCN1CC1` [#1061], in the series with Serius, the “Fluorescence quench Average” value was found to be 0.80. For the same molecule, in the series with bovine coagulated blood, the “700 nm calibrated 420 nm Average” value came to 1.14 and the “integrated value 500-700 nm Average” value is on record as 0.91.

Where the note is “Table 4”, `N[C@@H](CS(=O)(=O)O)C(=O)O` [#0745, L-cysteic acid] gave a pH of 2.11.

Consider `CCCCCCCCCCCC(=O)N(C)CC(=O)[O-].[Na+]` [#1466, Sodium N- lauroylsarcosinate], for which the pH (Table 1) was 6.1. Moreover, the OD400 in series [1] (Table 1) turned out to be 0.05.

Take `OCCCCBr` [#1366, 4-Bromo-1-butanol (contains tetrahydrofuran)]: the pH (Table 4) stood at 2.31.

On to `C1CCC2=NCCCN2CC1` [#0594, 1,8-Diazabicyclo [5.4.0]-7-undecene], for which the “Fluorescence quench Average” value in the series with Serius is 0.54. Also, in the series on bovine coagulated blood, the “700 nm calibrated 420 nm Average” value is given as 3.13 and the “integrated value 500-700 nm Average” value is 1.94.

As to `CC(=O)N(CC(O)CO)c1c(I)c(C(=O)NCC(O)CO)c(I)c(C(=O)NCC(O)CO)c1I` (centres unmarked) [Histodenz ™, reference compound], for the setting “Table 3”, the pH was 7.3. The same molecule displayed an OD400 in series [1] (Table 3) of 0.054.

As to `CN(CCCN)CCCN` [#0380], the “Fluorescence quench Average” value in the series with Serius (relative fluorescence) was determined as 0.62. In the series on bovine coagulated blood, the “700 nm calibrated 420 nm Average” value amounted to 2.62 and the “integrated value 500-700 nm Average” value amounted to 1.58.

`F[N+]12CC[N+](CCl)(CC1)CC2` [#1608, N-Fluoro-N′-(chloromethyl) triethylenediamine bis (tetrafluoroborate)] returned a pH (Table 4) of 5.19.

In turn, `Cl.NOCc1ccccc1` [#0429, O-Benzylhydroxylamine hydrochloride] gave a pH (Table 4) of 4.10.

Under “Table 4”, `O=C1O[C@H](CO)[C@@H](O)[C@H](O)[C@H]1O` [#0963, D-(+)-Glucono-1,5-lactone] had a pH of 2.69.

On to `CCCCCCCCCCCCCCCC[N+](C)(C)C.[Cl-]` [#1235, Hexadecyltrimethyl- ammonium chloride], for which, in the series with Serius, the “Fluorescence quench Average” value was determined as 1.06. Besides, in the series on bovine coagulated blood, the “700 nm calibrated 420 nm Average” value was 2.85 and the “integrated value 500-700 nm Average” value was 2.71.

For `O=C(O)C(C(=O)O)C1CCCC1` [#0762, Cyclopentyl malonic acid], the pH (Table 4) was found to be 2.74.

`CCCCCCCCC(=O)[O-].[Na+]` [#0865, Sodium nonanoate] had a pH (Table 1) of 8.9. This molecule also came in with an OD400 in series [1] (Table 1) of 0.051.

Consider `O=C(O)CC(S)C(=O)O` (centres unmarked) [#1302, Thiomalic acid], for which, for the setting “Table 4”, the pH was 2.68.

For the setting “Table 4”, `CN(C)CCC(=O)O.Cl` [#0702, 3-(Dimethylamino) propionic acid hydrochloride] registered a pH of 2.17.

For `CC(=O)N[C@@H](CS)C(=O)O` [#0346, N-Acetyl- L-cysteine], the pH (Table 4) was determined as 2.86.

For the setting “Table 4”, `CCOC(=O)[C@H]1CC[C@H](O)CC1` [#0216, Ethyl trans-4-hydroxy-cyclohexanecarboxylate] showed a pH of 5.68.

Turning to `O=C(O)CC(CC(=O)O)C(=O)O` [#1094, 1,2,3-Propanetri-carboxylic acid], the pH (Table 4) turned out to be 2.69.

For `O=C(O)CCCCCl` [#0062, 5-Chlorovaleric acid], the pH (Table 4) stood at 2.86.

As for `C[n+]1ccc(-c2cc[n+](C)cc2)cc1` [#0652, 1,1′-Dimethyl-4,4′-bipyridinium dichloride], in the series on Serius, the “Fluorescence quench Average” value came out at 0.42. In the series on bovine coagulated blood, the “700 nm calibrated 420 nm Average” value came out at 2.01 and the “integrated value 500-700 nm Average” value is 2.01.

The molecule `CCCCCCC(O)CO` (centres unmarked) [#1109, 1,2-Octanediol] gave a pH (Table 4) of 6.00.

On to `CSCCC(NC(C)=O)C(=O)O` (racemic) [#0360, N-Acetyl- DL-methionine], for which the pH (Table 4) came out at 2.75.

For the molecule `CC[n+]1ccccc1Br` [#1562, 2-Bromo-1-ethylpyridinium tetrafluoroborate], the pH (Table 4) is 3.92.
